In ChEMBL document CHEMBL4257541, “Development of subnanomolar-affinity serotonin 5-HT4 receptor ligands based on quinoline structures” (Medchemcomm, 2018):

Molecular target: 5-hydroxytryptamine receptor 4 (Cavia porcellus, UniProt O70528)
Assay: Displacement of [3H]-GR113808 from 5-HT4R in Dunkin-Hartley guinea pig straitum nuclear membranes after 30 mins by filter binding method

Chain of 5-hydroxytryptamine receptor 4 (O70528 whole entry): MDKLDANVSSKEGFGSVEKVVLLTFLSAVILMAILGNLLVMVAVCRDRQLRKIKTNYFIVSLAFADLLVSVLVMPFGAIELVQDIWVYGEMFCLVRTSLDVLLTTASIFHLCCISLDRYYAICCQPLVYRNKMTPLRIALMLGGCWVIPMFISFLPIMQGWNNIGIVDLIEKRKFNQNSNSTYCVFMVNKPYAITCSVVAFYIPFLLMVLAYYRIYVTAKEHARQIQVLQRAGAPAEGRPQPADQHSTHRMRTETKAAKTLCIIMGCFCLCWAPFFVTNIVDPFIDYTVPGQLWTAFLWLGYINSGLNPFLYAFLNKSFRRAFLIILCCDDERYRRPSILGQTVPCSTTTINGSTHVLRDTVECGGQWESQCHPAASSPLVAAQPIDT

Ki	SMILES
0.00086 µM	CCCCN1CCC(COC(=O)c2cc(Cl)nc3ccccc23)CC1
0.304 µM	COc1cc(C(=O)OCCN2CCC(NC(=O)OC(C)(C)C)CC2)c2ccccc2n1
> 1 µM	CCCCN1CCC(CNC(=O)c2cc(OC)nc3ccccc23)CC1
0.0015 µM	CCCCN1CCC(COC(=O)c2ccnc3ccccc23)CC1
0.015 µM	COc1cc(C(=O)OCCN2CCCCC2)c2ccccc2n1
> 1 µM	O=C(NCCN1CCCCC1)c1cc(Cl)c2ccccc2n1
0.148 µM	CCCCN1CCC(CNC(=O)c2cc(OC)c3ccccc3n2)CC1
0.076 µM	CCCCN1CCC(CNC(=O)c2ccc3cccc(O)c3n2)CC1
0.008 µM	COc1cc(C(=O)OCCN2CCC(CO)CC2)c2ccccc2n1
0.00062 µM	CCCCN1CCC(COC(=O)c2cc(OC)nc3ccccc23)CC1
0.00044 µM	CCCCN1CCC(COC(=O)c2cc(C3CC3)nc3ccccc23)CC1
> 1 µM	COc1cc(C(=O)NCCN2CCCCC2)c2ccccc2n1
> 1 µM	O=C(NCCCN1CCCCC1)c1cc(Cl)c2ccccc2n1
0.039 µM	CCCCN1CCC(CNC(=O)c2cc(Cl)c3ccccc3n2)CC1
0.0039 µM	CCCCN1CCC(CCC(=O)c2cc(Cl)c(N)cc2OC)CC1
